Test results from patent US9051270B2, “Pyridone amides as modulators of sodium channels” (Vertex Pharmaceuticals Incorporated, priority 2013, dated 2015).
pIC50: −log10 of the molar value.

Legend:
human Nav1.8 = human Nav1.8 (Homo sapiens (Human), UniProt Q9Y5Y9); assay: E-VIPR optical membrane potential assay with electrical stimulation; assay type: cell-based; details: HEK cells expressing human Nav1.8
[1] = Microsomal stability assay, human liver microsomes (HLM); assay type: in vitro ADME; details: human liver microsomes 0.5 mg/mL, 1 uM substrate, 2 mM NADPH, 37° C., referenced against time zero control
Description: (§1) Microsomal Stability Assay.
(§2) Compounds were incubated at 37° C. and shaken for 30 minutes in a phosphate buffered solution with either rat or human liver microsomes and the cofactor NADPH. A time zero control was similarly prepared, however with NADPH excluded. The final incubation concentrations were 1 uM substrate (0.2% DMSO), 0.5 mg/mL liver microsome, 2 mM NADPH, and 0.1 M phosphate. Reactions were quenched and proteins precipitated with the addition of 2 volume equivalents of ice cold acetonitrile containing an internal standard. Following a centrifugation step, aliquots from the quenched incubations were further diluted with 4 volume equivalents of a 50% aqueous methanol solution and then subjected to LC/MS/MS analysis for quantitation of parent compound. Microsome stability values were calculated as the percent of substrate remaining after 30 minutes referenced against the time zero control.
(§3) Microsomal stability in rat and human liver microsomes were determined for selected compounds of the present invention using the above assay. Table 4 provides the human liver microsomes (“HLM”) and rat liver microsomes (“RLM”) stability data as the percent of compound remaining after 30 minutes referenced against the time zero control.

[2] = Microsomal stability assay, rat liver microsomes (RLM); assay type: in vitro ADME; details: rat liver microsomes 0.5 mg/mL, 1 uM substrate, 2 mM NADPH, 37° C., referenced against time zero control
Description: as §1, §2, §3

Sequence of human Nav1.8 (Q9Y5Y9 whole entry): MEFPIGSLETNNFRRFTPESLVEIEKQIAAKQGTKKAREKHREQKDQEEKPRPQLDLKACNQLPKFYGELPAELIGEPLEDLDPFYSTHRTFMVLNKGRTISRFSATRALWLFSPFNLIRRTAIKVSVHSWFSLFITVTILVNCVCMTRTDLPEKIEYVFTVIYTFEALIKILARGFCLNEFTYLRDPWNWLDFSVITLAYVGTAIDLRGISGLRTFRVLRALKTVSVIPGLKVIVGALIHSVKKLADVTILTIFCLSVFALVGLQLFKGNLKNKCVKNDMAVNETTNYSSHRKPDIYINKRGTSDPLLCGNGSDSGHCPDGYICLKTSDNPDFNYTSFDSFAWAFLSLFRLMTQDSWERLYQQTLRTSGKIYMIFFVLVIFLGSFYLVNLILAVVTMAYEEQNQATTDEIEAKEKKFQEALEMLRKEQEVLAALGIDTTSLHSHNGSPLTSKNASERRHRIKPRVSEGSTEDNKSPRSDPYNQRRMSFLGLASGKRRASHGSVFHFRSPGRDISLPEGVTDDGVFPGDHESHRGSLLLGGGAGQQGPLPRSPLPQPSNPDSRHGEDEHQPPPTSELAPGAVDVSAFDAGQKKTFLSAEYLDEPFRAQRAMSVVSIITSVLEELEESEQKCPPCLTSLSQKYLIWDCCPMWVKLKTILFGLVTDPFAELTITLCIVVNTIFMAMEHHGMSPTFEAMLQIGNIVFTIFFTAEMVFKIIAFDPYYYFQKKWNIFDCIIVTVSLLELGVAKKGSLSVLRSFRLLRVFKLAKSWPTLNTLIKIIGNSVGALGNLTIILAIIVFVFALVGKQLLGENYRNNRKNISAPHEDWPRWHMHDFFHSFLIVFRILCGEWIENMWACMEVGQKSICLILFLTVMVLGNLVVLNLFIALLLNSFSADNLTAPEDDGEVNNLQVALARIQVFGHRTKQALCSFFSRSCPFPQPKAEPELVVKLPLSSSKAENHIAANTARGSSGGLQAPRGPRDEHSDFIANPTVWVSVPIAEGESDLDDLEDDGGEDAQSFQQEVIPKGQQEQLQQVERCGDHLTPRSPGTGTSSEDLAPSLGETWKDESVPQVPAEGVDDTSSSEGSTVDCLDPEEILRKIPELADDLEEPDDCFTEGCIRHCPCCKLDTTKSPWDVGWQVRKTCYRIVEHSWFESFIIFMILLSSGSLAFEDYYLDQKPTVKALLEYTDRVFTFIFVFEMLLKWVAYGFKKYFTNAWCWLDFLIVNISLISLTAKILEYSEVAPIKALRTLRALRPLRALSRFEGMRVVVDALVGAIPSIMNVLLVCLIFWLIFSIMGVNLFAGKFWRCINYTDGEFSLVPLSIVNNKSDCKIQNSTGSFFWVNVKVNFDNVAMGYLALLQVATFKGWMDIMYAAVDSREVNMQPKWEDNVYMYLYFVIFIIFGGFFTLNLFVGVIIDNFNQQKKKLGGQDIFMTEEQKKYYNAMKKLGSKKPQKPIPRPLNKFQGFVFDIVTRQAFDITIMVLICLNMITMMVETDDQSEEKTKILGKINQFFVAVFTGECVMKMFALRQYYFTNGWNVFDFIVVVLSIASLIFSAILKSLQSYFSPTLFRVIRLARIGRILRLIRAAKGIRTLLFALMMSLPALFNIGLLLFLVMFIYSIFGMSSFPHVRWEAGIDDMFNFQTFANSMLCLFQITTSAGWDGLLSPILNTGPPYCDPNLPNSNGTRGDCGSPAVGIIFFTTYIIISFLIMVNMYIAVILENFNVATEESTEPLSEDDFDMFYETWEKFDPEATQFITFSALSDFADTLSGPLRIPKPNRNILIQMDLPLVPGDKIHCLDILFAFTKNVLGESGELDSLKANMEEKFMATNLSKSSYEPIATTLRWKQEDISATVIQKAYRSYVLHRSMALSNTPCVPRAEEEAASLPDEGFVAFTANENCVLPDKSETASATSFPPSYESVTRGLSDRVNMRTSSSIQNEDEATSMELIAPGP

| Compound | pIC50 (human Nav1.8) | HLM (% remaining @ 30 minutes) [1] [%] | RLM (% remaining @ 30 minutes) [2] [%] |
| --- | --- | --- | --- |
| O=C(Nc1cc[nH]c(=O)c1)c1ccc(C(F)(F)F)cc1Oc1ccc(F)cc1F [Compound 7, 2-(2,4-difluorophenoxy)-N-(2-oxo-1,2-dihydropyridin-4-yl)-4-(trifluoromethyl)benzamide] | 7.30 | 97 | 99 |
| O=C(Nc1cc[nH]c(=O)c1)c1ccc(C(F)(F)F)cc1Oc1ccc(F)cc1CO [Compound 157, 2-(4-fluoro-2-(hydroxymethyl)phenoxy)-N-(2-oxo-1,2-dihydropyridin-4-yl)-4-(trifluoromethyl)benzamide] | 7.24 | 101.5 | 102 |
| O=C(Nc1cc[nH]c(=O)c1)c1cc(C(F)(F)F)ccc1Oc1ccc(OC(F)(F)F)cc1 [Compound 72, N-(2-oxo-1,2-dihydropyridin-4-yl)-2-(4-(trifluoromethoxy)phenoxy)-5-(trifluoromethyl)benzamide] | 7.89 | 100 | 95.5 |
| Cc1cc(F)ccc1Oc1ccc(Cl)cc1C(=O)Nc1cc[nH]c(=O)c1 [Compound 68, 5-chloro-2-(4-fluoro-2-methylphenoxy)-N-(2-oxo-1,2-dihydropyridin-4-yl)benzamide] | 7.52 | 98 | 72 |
| O=C(Nc1cc[nH]c(=O)c1)c1cc(OC(F)(F)F)ccc1Oc1ccc(F)cc1Cl [Compound 37, 2-(2-chloro-4-fluorophenoxy)-N-(2-oxo-1,2-dihydropyridin-4-yl)-5-(trifluoromethoxy)benzamide] | 7.29 | 100 | 97 |
| Cc1cc(F)ccc1Oc1cc(C(F)(F)F)ccc1C(=O)Nc1cc[nH]c(=O)c1 [Compound 10, 2-(4-fluoro-2-methylphenoxy)-N-(2-oxo-1,2-dihydropyridin-4-yl)-4-(trifluoromethyl)benzamide] |  | 93 | 82 |
| CC(C)Oc1ccccc1Oc1ccc(C(F)(F)F)cc1C(=O)Nc1cc[nH]c(=O)c1 [Compound 64, 2-(2-isopropoxyphenoxy)-N-(2-oxo-1,2-dihydropyridin-4-yl)-5-(trifluoromethyl)benzamide] | 6.97 |  |  |
| O=C(Nc1cc[nH]c(=O)c1)c1cc(C(F)(F)F)ccc1OCCCC(F)(F)F [Compound 133, N-(2-oxo-1,2-dihydropyridin-4-yl)-2-(4,4,4-trifluorobutoxy)-5-(trifluoromethyl)benzamide] | 5.24 |  |  |
| CC(C)CCOc1cc(C(F)(F)F)ccc1C(=O)Nc1cc[nH]c(=O)c1 [Compound 116, 2-(isopentyloxy)-N-(2-oxo-1,2-dihydropyridin-4-yl)-4-(trifluoromethyl)benzamide] | 6.31 |  |  |
| Cc1ccc(Oc2cc(C(F)(F)F)ccc2C(=O)Nc2cc[nH]c(=O)c2)cn1 [Compound 146, 2-((6-methylpyridin-3-yl)oxy)-N-(2-oxo-1,2-dihydropyridin-4-yl)-4-(trifluoromethyl)benzamide] | 5.34 |  |  |
| O=C(Nc1cc[nH]c(=O)c1)c1cc(F)ccc1Oc1ccc(OCCCC(F)(F)F)cc1 [Compound 160, 5-fluoro-N-(2-oxo-1,2-dihydropyridin-4-yl)-2-(4-(4,4,4-trifluorobutoxy)phenoxy)benzamide] | 5.86 |  |  |
| Cc1cc(C)c(C)c(Oc2ccc(F)cc2C(=O)Nc2cc[nH]c(=O)c2)c1 [Compound 94, 5-fluoro-N-(2-oxo-1,2-dihydropyridin-4-yl)-2-(2,3,5-trimethylphenoxy)benzamide] | 5.85 |  |  |
| O=C(Nc1cc[nH]c(=O)c1)c1ccc(Cl)cc1OCCCC(F)(F)F [Compound 129, 4-chloro-N-(2-oxo-1,2-dihydropyridin-4-yl)-2-(4,4,4-trifluorobutoxy)benzamide] | 6.03 |  |  |
| COc1ccc(Oc2ccc(Cl)cc2C(=O)Nc2cc[nH]c(=O)c2)cc1F [Compound 71, 5-chloro-2-(3-fluoro-4-methoxyphenoxy)-N-(2-oxo-1,2-dihydropyridin-4-yl)benzamide] | 7.04 |  |  |
| Cc1ccc(Oc2ccc(OC(F)(F)F)cc2C(=O)Nc2cc[nH]c(=O)c2)cc1 [Compound 35, N-(2-oxo-1,2-dihydropyridin-4-yl)-2-(p-tolyloxy)-5-(trifluoromethoxy)benzamide] | 6.33 |  |  |
| Cc1cc(C)c(Oc2ccc(F)cc2C(=O)Nc2cc[nH]c(=O)c2)cc1C [Compound 105, 5-fluoro-N-(2-oxo-1,2-dihydropyridin-4-yl)-2-(2,4,5-trimethylphenoxy)benzamide] | 5.45 |  |  |
| O=C(Nc1ccc(=O)[nH]c1)c1ccc(C(F)(F)F)cc1Oc1ccc(C(F)(F)F)nc1 [Compound 145, N-(6-oxo-1,6-dihydropyridin-3-yl)-4-(trifluoromethyl)-2-((6-(trifluoromethyl)pyridin-3-yl)oxy)benzamide] | 5.30 |  |  |

| Compound | pIC50 (human Nav1.8) | HLM (% remaining @ 30 minutes) [1] [%] | RLM (% remaining @ 30 minutes) [2] [%] |
| --- | --- | --- | --- |
| CC1(C)CC1COc1ccc(OC(F)(F)F)cc1C(=O)Nc1cc[nH]c(=O)c1 (stereo not drawn) [Compound 140, 2-((2,2-dimethylcyclopropyl)methoxy)-N-(2-oxo-1,2-dihydropyridin-4-yl)-5-(trifluoromethoxy)benzamide] | 4.82 |  |  |
| O=C(Nc1cc[nH]c(=O)c1)c1ccc(Cl)cc1Oc1ccc(F)cc1F [Compound 13, 4-chloro-2-(2,4-difluorophenoxy)-N-(2-oxo-1,2-dihydropyridin-4-yl)benzamide] | 6.97 |  |  |
| Cc1cc(F)ccc1Oc1cc(C#N)ccc1C(=O)Nc1cc[nH]c(=O)c1 [Compound 23, 4-cyano-2-(4-fluoro-2-methylphenoxy)-N-(2-oxo-1,2-dihydropyridin-4-yl)benzamide] | 5.82 |  |  |
| O=C(Nc1cc[nH]c(=O)c1)c1cc(C(F)(F)F)ccc1Oc1ccc(OC(F)F)cc1 [Compound 73, 2-(4-(difluoromethoxy)phenoxy)-N-(2-oxo-1,2-dihydropyridin-4-yl)-5-(trifluoromethyl)benzamide] | 7.46 |  |  |
| O=C(Nc1cc[nH]c(=O)c1)c1ccc(C(F)(F)F)cc1Oc1ccc(F)cc1Cl [Compound 77, 2-(2-chloro-4-fluorophenoxy)-N-(2-oxo-1,2-dihydropyridin-4-yl)-4-(trifluoromethyl)benzamide] | 7.54 |  |  |
| Cc1ccc(Oc2cc(C(F)(F)F)ccc2C(=O)Nc2cc[nH]c(=O)c2)cc1 [Compound 12, N-(2-oxo-1,2-dihydropyridin-4-yl)-2-(p-tolyloxy)-4-(trifluoromethyl)benzamide] | 6.97 |  |  |
| N#Cc1ccc(Oc2ccc(C(F)(F)F)cc2C(=O)Nc2cc[nH]c(=O)c2)cc1 [Compound 25, 2-(4-cyanophenoxy)-N-(2-oxo-1,2-dihydropyridin-4-yl)-5-(trifluoromethyl)benzamide] | 5.96 |  |  |
| CCOc1ccc(Oc2ccc(F)cc2C(=O)Nc2cc[nH]c(=O)c2)cc1 [Compound 98, 2-(4-ethoxyphenoxy)-5-fluoro-N-(2-oxo-1,2-dihydropyridin-4-yl)benzamide] | 6.52 |  |  |
| COc1cc(F)ccc1Oc1ccc(OC(F)(F)F)cc1C(=O)Nc1cc[nH]c(=O)c1 [Compound 42, 2-(4-fluoro-2-methoxyphenoxy)-N-(2-oxo-1,2-dihydropyridin-4-yl)-5-(trifluoromethoxy)benzamide] | 7.17 |  |  |
| Cc1cc(F)ccc1Oc1ccc(C(F)(F)F)cc1C(=O)Nc1cc(Cl)[nH]c(=O)c1 [Compound 60, N-(6-chloro-2-oxo-1,2-dihydropyridin-4-yl)-2-(4-fluoro-2-methylphenoxy)-5-(trifluoromethyl)benzamide] | 6.90 |  |  |
| O=C(Nc1cc[nH]c(=O)c1)c1ccc(C(F)(F)F)cc1Oc1ccccc1OC(F)F [Compound 83, 2-(2-(difluoromethoxy)phenoxy)-N-(2-oxo-1,2-dihydropyridin-4-yl)-4-(trifluoromethyl)benzamide] | 7.34 |  |  |
| COc1ccc(Oc2ccc(C(F)(F)F)cc2C(=O)Nc2cc[nH]c(=O)c2)c(Cl)c1 [Compound 49, 2-(2-chloro-4-methoxyphenoxy)-N-(2-oxo-1,2-dihydropyridin-4-yl)-5-(trifluoromethyl)benzamide] | 7.62 |  |  |
| COc1ccc(Oc2cc(C(F)(F)F)ccc2C(=O)Nc2cc[nH]c(=O)c2)c(Cl)c1F [Compound 110, 2-(2-chloro-3-fluoro-4-methoxyphenoxy)-N-(2-oxo-1,2-dihydropyridin-4-yl)-4-(trifluoromethyl)benzamide] | 6.05 |  |  |
| N#Cc1ccc(C(=O)Nc2cc[nH]c(=O)c2)c(Oc2ccc(F)cc2)c1 [Compound 21, 4-cyano-2-(4-fluorophenoxy)-N-(2-oxo-1,2-dihydropyridin-4-yl)benzamide] | 6.07 |  |  |
| Cc1ccccc1Oc1cc(C(F)(F)F)ccc1C(=O)Nc1cc[nH]c(=O)c1 [Compound 11, N-(2-oxo-1,2-dihydropyridin-4-yl)-2-(o-tolyloxy)-4-(trifluoromethyl)benzamide] | 7.25 |  |  |
| O=C(Nc1cc[nH]c(=O)c1)c1ccc(C(F)(F)F)cc1OC1CCC1 [Compound 122, 2-cyclobutoxy-N-(2-oxo-1,2-dihydropyridin-4-yl)-4-(trifluoromethyl)benzamide] | 5.38 |  |  |
| CC(C)COc1cc(C(F)(F)F)ccc1C(=O)Nc1cc[nH]c(=O)c1 [Compound 117, 2-isobutoxy-N-(2-oxo-1,2-dihydropyridin-4-yl)-4-(trifluoromethyl)benzamide] | 5.94 |  |  |
